Laboratory results reported in patent EP3693362B1, “PARASITIC PLANT GERMINATION REGULATOR” (National University Corporation Tokai National Higher …, priority 2017, dated 2019).

Assays:
Assay type in all cases: in vivo
Striga hermonthica = assay: Parasitic plant germination induction test (Striga hermonthica seeds); details: in the dark for 2 days; for Germination rate 0.1 nM: compound concentration 0.1 nM; for Germination rate 1 nM: compound concentration 1 nM; for Germination rate 10 nM: compound concentration 10 nM
Method: (§1) A parasitic plant germination induction test was conducted using the compounds synthesized in Example 1 as test compounds. The seeds of a parasitic plant (Striga hermonthica, Orobanche minor, or Phelipanche aegyptiaca) were suspended in sterilized ultrapure water, and this was dispensed in an amount of 100 µL each (containing about 20 seeds) into a 96-well plate. The test compounds or control compounds (Comparison Compound 1 or synthetic Strigolactone (GR^24: Comparison Compound 2)) dissolved in DMSO were individually added thereto to a final concentration of these compounds of 10 nM to 1 fM (1 × 10^-8 to 1 × 10^-15 M), and allowed to stand in the dark for 2 days. The presence or absence of germination was observed using a microscope, and the germination rate (i.e., number of germinated seeds/total number of seeds) was measured. The higher the germination rate in the parasitic plant germination induction test, or the higher the germination rate at lower concentration, the higher the Striga germination inducing activity.
(§2) In Tables 1 to 6, the concentrations (10 nM, 1 nM, and 0.1 nM) represent compound concentrations. In Tables 1-6, the evaluation criteria for the compounds are as follows: • ++: germination rate of 20% or more • +: germination rate of 5% or more and less than 20% • -: germination rate of less than 5% Table 1

Orobanche minor = assay: Parasitic plant germination induction test (Orobanche minor seeds); details: in the dark for 2 days
Method: as §1, §2

Phelipanche aegyptiaca = assay: Parasitic plant germination induction test (Phelipanche aegyptiaca seeds); details: in the dark for 2 days
Method: as §1, §2

Molecule | Germination rate 0.1 nM (Striga hermonthica) | Germination rate 1 nM (Striga hermonthica) | Germination rate 10 nM (Striga hermonthica) | Germination rate 0.1 nM (Orobanche minor; compound concentration 0.1 nM) | Germination rate 1 nM (Orobanche minor; compound concentration 1 nM) | Germination rate 10 nM (Orobanche minor; compound concentration 10 nM) | Germination rate 1 nM (Phelipanche aegyptiaca; compound concentration 1 nM) | Germination rate 10 nM (Phelipanche aegyptiaca; compound concentration 10 nM)
COc1ccc(S(=O)(=O)N2CCN(C(=O)OC3C=C(C)C(=O)O3)CC2)cc1 (stereo not shown) [Compound 2] | ++ (germination rate of 20% or more) | ++ (germination rate of 20% or more) | ++ (germination rate of 20% or more) | – | – | – | – | –
CCCCCOc1ccc(S(=O)(=O)N2CCN(C(=O)OC3C=C(C)C(=O)O3)CC2)cc1 (stereo not shown) [Compound 5] | ++ (germination rate of 20% or more) | ++ (germination rate of 20% or more) | ++ (germination rate of 20% or more) | – | – | – | – | –
CCc1ccc(S(=O)(=O)N2CCN(C(=O)OC3C=C(C)C(=O)O3)CC2)cc1 (stereo not shown) [Compound 6] | ++ (germination rate of 20% or more) | ++ (germination rate of 20% or more) | ++ (germination rate of 20% or more) | – | – | – | – | –
CCCCCc1ccc(S(=O)(=O)N2CCN(C(=O)OC3C=C(C)C(=O)O3)CC2)cc1 (stereo not shown) [Compound 7] | ++ (germination rate of 20% or more) | ++ (germination rate of 20% or more) | ++ (germination rate of 20% or more) | – | – | – | – | –
CC1=CC(OC(=O)N2CCN(S(=O)(=O)c3ccc(C(F)(F)F)cc3)CC2)OC1=O (stereo not shown) [Compound 8] | ++ (germination rate of 20% or more) | ++ (germination rate of 20% or more) | ++ (germination rate of 20% or more) | – | – | – | – | –
CC1=CC(OC(=O)N2CCN(S(=O)(=O)c3cccc(Br)c3)CC2)OC1=O (stereo not shown) [Compound 9] | ++ (germination rate of 20% or more) | ++ (germination rate of 20% or more) | ++ (germination rate of 20% or more) | – | – | – | – | –
COc1ccc(S(=O)(=O)N2CCN(C(=O)OC3C=CC(=O)O3)CC2)cc1 (stereo not shown) [Compound 10] | - (germination rate of less than 5%) | ++ (germination rate of 20% or more) | ++ (germination rate of 20% or more) | – | – | – | – | –
CCOc1ccc(S(=O)(=O)N2CCN(C(=O)OC3C=CC(=O)O3)CC2)cc1 (stereo not shown) [Compound 11] | + (germination rate of 5% or more and less than 20%) | ++ (germination rate of 20% or more) | ++ (germination rate of 20% or more) | – | – | – | – | –
CCCOc1ccc(S(=O)(=O)N2CCN(C(=O)OC3C=CC(=O)O3)CC2)cc1 (stereo not shown) [Compound 12] | + (germination rate of 5% or more and less than 20%) | ++ (germination rate of 20% or more) | ++ (germination rate of 20% or more) | – | – | – | – | –
CCCCCOc1ccc(S(=O)(=O)N2CCN(C(=O)OC3C=CC(=O)O3)CC2)cc1 (stereo not shown) [Compound 14] | - (germination rate of less than 5%) | ++ (germination rate of 20% or more) | ++ (germination rate of 20% or more) | – | – | – | – | –
Cc1ccc(S(=O)(=O)N2CCN(C(=O)OC3C=CC(=O)O3)CC2)cc1 (stereo not shown) [Compound 15] | - (germination rate of less than 5%) | + (germination rate of 5% or more and less than 20%) | ++ (germination rate of 20% or more) | – | – | – | – | –
CCc1ccc(S(=O)(=O)N2CCN(C(=O)OC3C=CC(=O)O3)CC2)cc1 (stereo not shown) [Compound 16] | – | ++ (germination rate of 20% or more) | ++ (germination rate of 20% or more) | – | – | – | – | –
CCCCCc1ccc(S(=O)(=O)N2CCN(C(=O)OC3C=CC(=O)O3)CC2)cc1 (stereo not shown) [Compound 17] | + (germination rate of 5% or more and less than 20%) | + (germination rate of 5% or more and less than 20%) | ++ (germination rate of 20% or more) | – | – | – | – | –
O=C1C=CC(OC(=O)N2CCN(S(=O)(=O)c3ccc(C(F)(F)F)cc3)CC2)O1 (stereo not shown) [Compound 18] | - (germination rate of less than 5%) | + (germination rate of 5% or more and less than 20%) | ++ (germination rate of 20% or more) | – | – | – | – | –
O=C1C=CC(OC(=O)N2CCN(S(=O)(=O)c3cccc(Br)c3)CC2)O1 (stereo not shown) [Compound 19] | - (germination rate of less than 5%) | ++ (germination rate of 20% or more) | ++ (germination rate of 20% or more) | – | – | – | – | –
O=C1C=CC(OC(=O)N2CCN(S(=O)(=O)c3ccc([N+](=O)[O-])cc3)CC2)O1 (stereo not shown) [Compound 20] | - (germination rate of less than 5%) | ++ (germination rate of 20% or more) | ++ (germination rate of 20% or more) | – | – | – | – | –
CC(C)(C)c1ccccc1OCC1CN(C(=O)OC2C=CC(=O)O2)CCO1 (stereo not shown) [Reference Compound 30] | - (germination rate of less than 5%) | ++ (germination rate of 20% or more) | ++ (germination rate of 20% or more) | – | – | – | – | –
GR^24 [Comparison Compound 2, reference compound] | - (germination rate of less than 5%) | ++ (germination rate of 20% or more) | ++ (germination rate of 20% or more) | - (germination rate of less than 5%) | + (germination rate of 5% or more and less than 20%) | ++ (germination rate of 20% or more) | - (germination rate of less than 5%) | ++ (germination rate of 20% or more)
